The values that follow are results of earlier work, collected in patent EP3932402A1, “ADAM17 INHIBITORS FOR USE IN THE PREVENTION AND/OR TREATMENT OF COVID-19” (Max-Delbrück-Centrum für Molekulare Medizin in der …, priority 2020, dated 2022).

The target of one series is T1, ADAM17 (Homo sapiens, UniProt P78536).
T1 construct: host or cells: patients (endogenous enzyme)
The settings on record: Moss et al., 2008.

In the next series the test system is ADAM17, ADAM10. The following applies: in combination with trastuzumab; Newton et al.

T1 sequence (P78536 215-824): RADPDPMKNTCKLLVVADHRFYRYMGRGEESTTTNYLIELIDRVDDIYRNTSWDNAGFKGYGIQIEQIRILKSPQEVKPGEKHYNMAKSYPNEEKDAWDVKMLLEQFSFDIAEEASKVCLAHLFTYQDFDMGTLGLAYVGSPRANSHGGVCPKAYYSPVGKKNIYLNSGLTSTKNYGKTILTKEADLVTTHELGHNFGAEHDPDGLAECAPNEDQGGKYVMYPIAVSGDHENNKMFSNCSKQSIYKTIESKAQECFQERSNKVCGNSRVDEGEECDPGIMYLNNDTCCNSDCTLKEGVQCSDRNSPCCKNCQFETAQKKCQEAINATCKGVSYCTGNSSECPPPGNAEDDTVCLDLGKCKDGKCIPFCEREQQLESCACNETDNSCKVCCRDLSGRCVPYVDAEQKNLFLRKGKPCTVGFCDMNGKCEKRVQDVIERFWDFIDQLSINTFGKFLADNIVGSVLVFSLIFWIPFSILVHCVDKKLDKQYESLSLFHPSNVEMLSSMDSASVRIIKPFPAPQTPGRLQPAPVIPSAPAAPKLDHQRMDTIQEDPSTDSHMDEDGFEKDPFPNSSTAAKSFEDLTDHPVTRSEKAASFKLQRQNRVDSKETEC

Consider `CON(Cc1ccc(F)cc1)C(=O)C=C1OC(C)(C)OC1=O` [BMS-561392, Acetamide, 2-(2,2-dimethyl-5-oxo-1,3-dioxolan-4-ylidene)-N-((4-fluorophenyl)methyl)-N-methoxy-], for which the “reason for discontinued development” value at ADAM17 is “concerns over liver toxicity”. Besides, the “proof of concept in sepsis and rheumatoid arthritis” value on ADAM17 (clinical Phase II) is “beneficial effects”.
Regarding `COC(=O)N1CC2(CC2)C[C@H](C(=O)NO)[C@H]1C(=O)N1CCN(c2ccccc2)CC1` [INCB7839, methyl (6S,7S)-7-(hydroxycarbamoyl)-6-(4-phenylpiperazine-1-carbonyl)-5-azaspiro[2.5]octane-5-carboxylate], the pro-coagulant effects result (adult patients) is listed as “observed in some adult patients”. In addition, where the note is “solid tumors and breast cancer”, the “deep venous thrombosis, incidence” value was 9/41; the dose limiting toxicity result is “deep venous thrombosis”; the “severity of adverse effects” value is recorded as “mild to moderate”. Further, in the series on ADAM17, ADAM10, the HER2 cleavage entry was “markedly reduced” and the clinical response rate result is “markedly reduced”.
